In general, IC50 refers to the concentration at which inhibition is half-maximal. Usually EC50 stands for the midpoint of the concentration-response curve. Usually GI50 stands for the concentration giving 50% growth inhibition. Low values mean more potent growth inhibition, high ones less potent growth inhibition.

Results on four compounds are retold here after paper PMC3760004 (Cancer research, 2013).

“Also recorded” adds a separate entry of the source.

One assay has as its system KRAS-driven lung tumors. The experiment in a line: Tumor volume by MRI in KRAS G12D driven lung cancer model. In kind it is in vivo. Conditions: KRAS G12D mice, 4 weeks, Torin2 40 mg/kg q.d., AZD6244 25 mg/kg q.d.
A further assay relates to pERK. The experiment in a line: Pharmacodynamics by immunohistochemistry in KRAS G12D lung tumors. It counts as in vivo, Mice. Conditions: for pERK1/2 levels: after 4-week treatment.
A further assay concerns Calu1. Description: 72-hour proliferation assay. It counts as cell-based, human.
Assay [1] addresses T1, mTORC1 (Homo sapiens, UniProt P42345). The experiment in a line: Cellular wash-out assay, S6KT389 phosphorylation, HCT116 cells. It counts as cell-based. As to conditions: 100 nM for 1 hour, then wash-out.
The target in assay [2] is T2, mTORC2 (Homo sapiens, UniProt P42345). The experiment in a line: Cellular wash-out assay, AktS473 phosphorylation, HCT116 cells. It counts as cell-based. Conditions: 100 nM for 1 hour, then wash-out.
The target in assay [3] is T3, ATM (Homo sapiens, UniProt Q13315). Description: Kinativ chemical proteomics profiling in cellular lysates. It counts as binding.
For assay [4], the target named is T4, ATR (Homo sapiens, UniProt Q13535). The description is as above. It counts as binding.
The next assay deals with PIP4K2C (Homo sapiens, UniProt Q8TBX8). Described as above. It counts as binding.
A further assay concerns the target PIP5K3 (Homo sapiens, UniProt Q9Y2I7). Described as above. In kind it is binding.
The target of a further assay is SMG1 (Homo sapiens, UniProt Q96Q15). Described as above. In kind it is binding.
Assay [5] has as its target T4, ATR. Description: ATR cellular activity, S317 of Chk1 after UV radiation, HCT-116 cells. It counts as cell-based.
The target of assay [6] is T3, ATM. In kind it is cell-based.
For assay [7], the target named is T1, mTORC1. Conditions: 0.5 µM inhibitor 1 hour, then 500 µM ATP.
In assay [8] the target is T1, mTORC1. Conditions: cited from earlier work.
A further assay relates to T308 of Akt. Description: Western blot of T308 of Akt in HCT-116 cells. In kind it is cell-based. As to conditions: Homo sapiens, HCT-116, read-out: EC50, T308 of Akt. In general terms: In western blotting, separated proteins are transferred to a membrane and probed.
The subject of the next assay is H2122. The experiment in a line: Tumor cell growth assay. In kind it is cell-based. As to conditions: Homo sapiens, NCI-H2122, 72 h.
Another assay relates to H358. The experiment in a line: Tumor cell growth assay. It counts as cell-based. Conditions: Homo sapiens, NCI-H358, 72 h.
Another assay has as its system H1792. Description: Tumor cell growth assay. In kind it is cell-based. As to conditions: Homo sapiens, NCI-H1792, 72 h.
In another assay the test system is A549. The experiment in a line: Tumor cell growth assay. In kind it is cell-based. Conditions: Homo sapiens, A549, 72 h.
A further assay has as its system H441. Description: Tumor cell growth assay. It counts as cell-based. Conditions: Homo sapiens, NCI-H441, 72 h.
Another assay has as its system H1355. Description: Tumor cell growth assay. As to conditions: Homo sapiens, NCI-H1355, 72 h. It counts as cell-based.
Another assay concerns H460. The experiment in a line: Tumor cell growth assay. It counts as cell-based. Conditions: Homo sapiens, NCI-H460, 72 h.
In the next assay the test system is HCT-116. Description: Tumor cell growth assay. Conditions: Homo sapiens, HCT-116, 72 h. It counts as cell-based.
In the next assay the test system is H1299. Description: Tumor cell growth assay. It counts as cell-based. Conditions: Homo sapiens, NCI-H1299, 72 h.
A further assay relates to H292. The experiment in a line: Tumor cell growth assay. In kind it is cell-based. As to conditions: Homo sapiens, NCI-H292, 72 h.
The next assay deals with BT-20. The experiment in a line: Tumor cell growth assay. In kind it is cell-based. As to conditions: Homo sapiens, BT-20, 72 h.
The next assay concerns HS578T. The experiment in a line: Tumor cell growth assay. It counts as cell-based. As to conditions: Homo sapiens, Hs-578T, 72 h.
For the next assay, the system named is MCF10A. The experiment in a line: Tumor cell growth assay. In kind it is cell-based. As to conditions: Homo sapiens, MCF-10A, 72 h.
For a further assay, the system named is MCF7. The experiment in a line: Tumor cell growth assay. In kind it is cell-based. As to conditions: Homo sapiens, MCF7, 72 h.
In the next assay the test system is MDAMB231. Description: Tumor cell growth assay. It counts as cell-based. Conditions: Homo sapiens, MDA-MB-231, 72 h.
Another assay concerns SKBR3. The experiment in a line: Tumor cell growth assay. As to conditions: Homo sapiens, SK-BR-3, 72 h. It counts as cell-based.
The next assay relates to Hela. Description: Tumor cell growth assay. In kind it is cell-based. As to conditions: Homo sapiens, 72 h.
In the next assay the target is Human mTORC1 complex (Homo sapiens, UniProt P42345). Description: ATP competition assay. As to conditions: biochemical kinase assays with increasing ATP concentrations.
Assay [9] has as its system human fibroblast AG01522 cell line. The experiment in a line: Ionizing irradiation assay, clonogenic cell survival. It counts as cell-based. Conditions: AG01522, added 30min before irradiation.
Assay [10] relates to HCT116 cells, AktT308 phosphorylation. Description: Longer-term cellular signaling analysis. It counts as cell-based. Conditions: 100 nM.
The test system of assay [11] is HeLa cells, AktT308 phosphorylation. The experiment in a line: Longer-term cellular signaling analysis. It counts as cell-based. Conditions: 100 nM.
In assay [12] the test system is cancer cell lines (HCT116, Hela, Calu 1, H226, H358). Description: Apoptosis assay, PARP cleavage by western blot. In kind it is cell-based. Conditions: 16 hours.
The test system of the next assay is Hela cells. The experiment in a line: Autophagy assay, acridine orange staining. It counts as cell-based. Conditions: 72 h.
Assay [13] relates to HCT-116, Hela, Calu-1, H358 and H226. Description: Autophagy assay, LC3B staining and western blot. In kind it is cell-based. Conditions: 5 cell lines, 3 days.
Another assay relates to Hela S3 cells. Description: Cell cycle analysis by FACS. In kind it is cell-based. As to conditions: Hela S3, 48 hrs. In general terms: Flow cytometry measures light scatter and fluorescence of single cells or particles in a stream.
The next assay has as its system mTOR. The experiment in a line: Pharmacodynamics by immunohistochemistry in KRAS G12D lung tumors. In kind it is in vivo, Mice.
The subject of another assay is ATR kinase. The description is as above. Conditions: after 4-week treatment. In kind it is in vivo, Mice.
Assay [14] addresses T1, mTORC1. As to conditions: combined biochemical and cellular profiling summary.
Assay [15] deals with T2, mTORC2. As to conditions: combined biochemical and cellular profiling summary.
The target in another assay is DNA-PK (Homo sapiens, UniProt P78527). Conditions: combined biochemical and cellular profiling summary.
[16] abbreviates: combined biochemical and cellular profiling summary.
Setting [17] is: 2-day, 40 mg/kg single daily dosing.

T4 sequence (Q13535 whole entry): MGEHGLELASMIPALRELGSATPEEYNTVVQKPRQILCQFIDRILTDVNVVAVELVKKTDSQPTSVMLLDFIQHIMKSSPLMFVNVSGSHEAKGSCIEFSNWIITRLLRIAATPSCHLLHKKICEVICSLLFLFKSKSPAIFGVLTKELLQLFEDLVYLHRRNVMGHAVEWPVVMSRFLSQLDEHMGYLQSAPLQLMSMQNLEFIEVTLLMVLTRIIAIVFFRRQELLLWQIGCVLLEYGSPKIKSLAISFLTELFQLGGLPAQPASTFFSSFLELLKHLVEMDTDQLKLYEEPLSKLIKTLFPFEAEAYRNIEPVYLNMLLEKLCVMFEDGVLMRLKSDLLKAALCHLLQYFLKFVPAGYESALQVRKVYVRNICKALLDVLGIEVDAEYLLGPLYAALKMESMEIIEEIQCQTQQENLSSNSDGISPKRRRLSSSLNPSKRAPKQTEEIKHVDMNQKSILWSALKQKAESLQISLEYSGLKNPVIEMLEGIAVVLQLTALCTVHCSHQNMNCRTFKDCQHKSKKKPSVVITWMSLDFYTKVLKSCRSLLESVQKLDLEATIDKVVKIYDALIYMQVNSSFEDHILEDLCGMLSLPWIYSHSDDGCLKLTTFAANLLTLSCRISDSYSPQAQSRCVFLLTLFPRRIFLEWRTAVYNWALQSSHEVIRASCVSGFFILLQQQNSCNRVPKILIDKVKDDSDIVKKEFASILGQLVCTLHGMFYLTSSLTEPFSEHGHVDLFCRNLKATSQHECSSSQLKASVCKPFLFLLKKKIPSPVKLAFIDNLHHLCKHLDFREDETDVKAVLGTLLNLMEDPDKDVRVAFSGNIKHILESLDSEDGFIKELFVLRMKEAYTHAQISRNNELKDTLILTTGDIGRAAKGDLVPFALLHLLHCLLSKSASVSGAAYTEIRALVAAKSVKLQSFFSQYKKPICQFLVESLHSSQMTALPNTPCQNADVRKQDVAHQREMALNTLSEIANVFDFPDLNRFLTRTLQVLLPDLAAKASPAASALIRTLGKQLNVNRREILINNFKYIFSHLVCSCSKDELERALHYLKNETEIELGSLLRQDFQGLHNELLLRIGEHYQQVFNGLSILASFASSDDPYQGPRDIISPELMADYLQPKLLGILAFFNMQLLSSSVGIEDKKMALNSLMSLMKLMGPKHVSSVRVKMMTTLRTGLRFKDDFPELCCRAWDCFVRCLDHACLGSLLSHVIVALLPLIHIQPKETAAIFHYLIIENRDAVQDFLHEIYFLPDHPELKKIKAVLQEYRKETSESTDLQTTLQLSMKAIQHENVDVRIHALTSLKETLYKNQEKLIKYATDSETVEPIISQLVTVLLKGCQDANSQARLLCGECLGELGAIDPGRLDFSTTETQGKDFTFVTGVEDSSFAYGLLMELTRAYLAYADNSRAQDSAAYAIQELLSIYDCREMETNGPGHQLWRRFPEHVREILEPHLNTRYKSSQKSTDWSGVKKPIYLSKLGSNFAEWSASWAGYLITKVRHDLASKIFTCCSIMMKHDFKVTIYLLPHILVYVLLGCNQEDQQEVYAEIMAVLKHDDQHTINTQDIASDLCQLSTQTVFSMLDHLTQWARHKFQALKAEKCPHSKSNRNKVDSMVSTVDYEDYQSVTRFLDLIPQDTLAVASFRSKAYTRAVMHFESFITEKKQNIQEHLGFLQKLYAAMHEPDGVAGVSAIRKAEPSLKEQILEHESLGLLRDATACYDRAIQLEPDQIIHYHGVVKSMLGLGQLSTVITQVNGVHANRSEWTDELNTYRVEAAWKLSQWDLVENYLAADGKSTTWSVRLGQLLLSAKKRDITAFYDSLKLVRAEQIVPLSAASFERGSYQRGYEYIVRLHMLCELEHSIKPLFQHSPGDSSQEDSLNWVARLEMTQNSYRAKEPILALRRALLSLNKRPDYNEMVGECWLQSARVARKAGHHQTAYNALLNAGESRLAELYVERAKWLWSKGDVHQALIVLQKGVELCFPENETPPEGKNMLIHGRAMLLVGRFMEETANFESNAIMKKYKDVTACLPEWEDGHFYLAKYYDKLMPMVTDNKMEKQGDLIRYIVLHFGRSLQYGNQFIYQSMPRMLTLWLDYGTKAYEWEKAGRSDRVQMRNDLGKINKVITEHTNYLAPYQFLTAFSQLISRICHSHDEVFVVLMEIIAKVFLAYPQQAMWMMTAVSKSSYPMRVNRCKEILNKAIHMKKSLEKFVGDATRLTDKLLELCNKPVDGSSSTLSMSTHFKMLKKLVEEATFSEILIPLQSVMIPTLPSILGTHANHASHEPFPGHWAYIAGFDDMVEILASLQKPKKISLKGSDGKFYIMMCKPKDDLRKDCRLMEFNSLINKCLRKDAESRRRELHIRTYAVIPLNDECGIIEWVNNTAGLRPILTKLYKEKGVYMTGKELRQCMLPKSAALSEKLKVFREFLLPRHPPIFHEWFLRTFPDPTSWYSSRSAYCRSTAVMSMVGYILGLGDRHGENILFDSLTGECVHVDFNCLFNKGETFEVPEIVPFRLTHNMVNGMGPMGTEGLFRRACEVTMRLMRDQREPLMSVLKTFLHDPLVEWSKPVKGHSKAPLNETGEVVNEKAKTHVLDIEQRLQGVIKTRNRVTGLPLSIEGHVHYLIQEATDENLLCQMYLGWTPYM
T4 sequence (Q8WXE1 whole entry partner): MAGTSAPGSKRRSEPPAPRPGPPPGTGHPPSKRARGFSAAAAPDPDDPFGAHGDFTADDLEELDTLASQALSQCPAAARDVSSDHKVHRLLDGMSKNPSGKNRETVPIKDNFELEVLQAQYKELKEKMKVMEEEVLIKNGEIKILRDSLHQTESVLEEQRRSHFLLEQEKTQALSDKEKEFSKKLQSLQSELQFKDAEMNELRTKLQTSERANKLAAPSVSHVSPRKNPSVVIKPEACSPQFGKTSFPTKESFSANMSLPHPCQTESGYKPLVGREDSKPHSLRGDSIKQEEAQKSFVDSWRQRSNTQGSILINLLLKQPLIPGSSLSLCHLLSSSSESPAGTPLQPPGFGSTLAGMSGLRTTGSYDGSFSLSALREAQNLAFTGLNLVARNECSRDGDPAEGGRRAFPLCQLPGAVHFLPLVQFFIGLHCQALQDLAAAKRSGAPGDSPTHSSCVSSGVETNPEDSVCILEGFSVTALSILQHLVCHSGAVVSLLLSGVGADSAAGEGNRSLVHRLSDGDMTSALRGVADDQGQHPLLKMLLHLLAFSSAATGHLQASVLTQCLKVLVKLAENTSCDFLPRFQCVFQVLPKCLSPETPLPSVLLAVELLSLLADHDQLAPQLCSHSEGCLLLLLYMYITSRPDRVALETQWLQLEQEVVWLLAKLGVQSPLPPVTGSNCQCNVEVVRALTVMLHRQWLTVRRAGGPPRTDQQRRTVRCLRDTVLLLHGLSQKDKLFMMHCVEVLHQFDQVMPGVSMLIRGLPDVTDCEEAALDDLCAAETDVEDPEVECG
PIP4K2C, sequence (Q8TBX8 whole entry, species assumed): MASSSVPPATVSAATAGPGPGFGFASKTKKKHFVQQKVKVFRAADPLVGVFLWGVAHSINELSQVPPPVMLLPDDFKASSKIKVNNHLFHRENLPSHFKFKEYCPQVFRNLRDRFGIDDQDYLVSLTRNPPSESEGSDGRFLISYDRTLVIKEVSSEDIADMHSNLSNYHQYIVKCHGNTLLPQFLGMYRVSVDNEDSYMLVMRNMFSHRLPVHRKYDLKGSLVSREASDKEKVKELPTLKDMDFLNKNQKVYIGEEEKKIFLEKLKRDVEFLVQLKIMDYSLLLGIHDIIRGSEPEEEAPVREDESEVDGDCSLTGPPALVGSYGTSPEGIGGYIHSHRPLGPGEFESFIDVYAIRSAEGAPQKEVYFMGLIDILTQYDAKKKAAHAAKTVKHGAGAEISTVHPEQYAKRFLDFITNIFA

`Cn1cnc2c(F)c(Nc3ccc(Br)cc3Cl)c(C(=O)NOCCO)cc21` [AZD6244]: the “tumor volume / tumor growth by MRI” value with KRAS-driven lung tumors was “neither Torin2 (40 mg/kg, q.d.) nor AZD6244 (25 mg/kg, q.d.) alone resulted in a significant inhibition of tumor volume”. The pERK by immunohistochemistry entry in the assay with pERK (2-day, AZD6244 25 mg/kg) is reported as “profound inhibition”. Further, the pERK1/2 levels entry in the assay with pERK was “slightly recovered”.

For `COc1ccc(-c2ccc3c(N4CCOC[C@@H]4C)nc(N4CCOC[C@@H]4C)nc3n2)cc1CO` [AZD8055, reference compound], the “sensitivity of proliferation, Calu1” value with Calu1 was “relatively more resistant”. For the same compound, the “time for S6KT389 phosphorylation (mTORC1 function) to recover after wash-out” value on mTORC1 [1] is not above 1 h. For the same compound, on mTORC2 [2], the “time for AktS473 phosphorylation (mTORC2 function) to recover after wash-out” value was not above 1 h.

In the case of `CCC(=O)N1CCN(c2ccc(-n3c(=O)ccc4cnc5ccc(-c6cnc7ccccc7c6)cc5c43)cc2C(F)(F)F)CC1` [Torin1, 1-(4-(4-propionylpiperazin-1-yl)-3-(trifluoromethyl)phenyl)-9-(quinolin-3-yl)benz o[h][1,6]naphthyridin-2(1H)-one], the IC50 on ATM [3] was 640 nM; at ATR [4] it was less than 10 nM; on PIP4K2C, more than 10000 nM; against PIP5K3 it was more than 10000 nM; against SMG1 it was 4400 nM. Further, the concentration for a half-maximal effect (EC50) at ATR [5] and at ATM [6] was more than 1000 nM throughout. Further, the “duration of sustained inhibition of mTORC1 kinase activity after removal of drug” value on mTORC1 [7] (4EBP1 phosphorylation) is recorded as “approximately 75 minutes”. The “duration of suppression of S6K T389 phosphorylation after removal of the drug” value at mTORC1 [8] is “up to 16 h”.

For the compound `Nc1ccc(-c2ccc3ncc4ccc(=O)n(-c5cccc(C(F)(F)F)c5)c4c3c2)cn1` [Torin2, 9-(6-aminopyridin-3-yl)-1-(3-(trifluoromethyl)phenyl)benzo[h][1,6]naphthyridin-2(1H)-one], the EC50 in the assay with T308 of Akt is less than 10 nM; in the assay on PI3K (read-out: apparent EC50 against T308 with S473D mutant of Akt, PC3 AktS473D cell line), 200 nM. For the same compound, the “concentration at which ATR is inhibited” value at ATR [5] (setting [16]) is 20 to 100 nM. Also, at ATM [6] (setting [16]), the “concentration at which ATM is inhibited” value was in the range of 20 to 100 nM. Moreover, the GI50 in the assay on H2122 came out at 13.2 nM; in the assay with H358 it was 105 nM; in the assay with H1792 it was 19.8 nM; in the assay on A549, 31.1 nM; in the assay with H441, 20.5 nM; in the assay with H1355, 25.8 nM. Further, the GI50 in the assay on H460 is 45.7 nM; in the assay with HCT-116, 60.7 nM; with H1299, 23.6 nM; in the assay with H292, 10.1 nM; in the assay with BT-20, 219 nM; with HS578T it was 62.4 nM. Also, the GI50 in the assay on MCF10A is 32.1 nM; with MCF7 it was 41.1 nM; with MDAMB231 it was 108 nM; in the assay on SKBR3 it was 123 nM; with Hela, 29.3 nM. Further, the “sensitivity of proliferation, Calu1” value in the assay with Calu1 is given as “relatively more resistant”. The “mode of mTOR inhibition” value on Human mTORC1 complex is “ATP-competitive fashion”. The “time for AktS473 phosphorylation (mTORC2 function) to recover after wash-out” value on mTORC2 [2] is recorded as “approximately 4 hours”. In addition, in [9], the “sensitization of IR treatment, clonogenic survival” value was “dose dependent sensitization of the IR treatment”. Besides, the “recovery of AktT308 phosphorylation by 72 hours” value is on record as “partially” in assay [10] and “completely recovered” in assay [11]. For the same compound, the “apoptosis (PARP cleavage) in H358” value in assay [12] is reported as “induced strong apoptosis”. The “punctate acridine orange staining (autophagy)” value with Hela cells is listed as “dose dependent increase in punctate acridine staining”. Further, the LC3-1/II autophagosome markers entry in assay [13] is reported as “dose dependent increase of LC3-1/II autophagosome markers”. In the assay on Hela S3 cells, the “cell cycle distribution by flow cytometry” value was “dose-dependent decrease in G1 cells and an increase in S-phase, sub-G1 phase cells and cell death”. Further, the “tumor volume / tumor growth by MRI” value with KRAS-driven lung tumors is “did not yield significant efficacy; also recorded: neither Torin2 (40 mg/kg, q.d.) nor AZD6244 (25 mg/kg, q.d.) alone resulted in a significant inhibition of tumor volume”. Also, in the assay with mTOR (setting [17]), the “pAkt(T308) by immunohistochemistry” value is recorded as “partly suppressed”. Besides, the “pS6K(T389) and p4EBP1(T37/46) by immunohistochemistry” value in the assay with mTOR (setting [17]) is on record as “strongly suppressed”. Moreover, the “pS6K(T389) and p4EBP1(T37/46) levels” value with mTOR (after 4-week treatment) is recorded as “showed some recovery”. Moreover, the pERK1/2 levels entry in the assay on pERK was “significantly increased”. Also, the “pCHK1(S345)” value in the assay with ATR kinase is reported as “slightly decreased”. Further, the “concentration at which mTORC1 is inhibited” value at mTORC1 [14] is given as “less than 10 nM”. Besides, the “concentration at which mTORC2 is inhibited” value on mTORC2 [15] is reported as “less than 10 nM”. The “concentration at which PI3K is inhibited” value with PI3K (setting [16]) is “above 200 nM”. For the same compound, the “concentration at which DNA-PK is inhibited” value on DNA-PK was 20 to 100 nM. Further, the “recovery of mTORC1 kinase activity after removal of drug” value on mTORC1 [7] (about 75 minutes window) is recorded as “sustained inhibition of mTORC1”.
